From the supplement of paper PMC7840683
Where a name gives a salt, the structure may show the parent alone. ± gives the standard deviation of the averaged measurements.

System: HepaRG
Test: LDH release cytotoxicity, % of total lysis control; higher = more cytotoxic
Conditions: 48 h
Summary of the method: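 On collagen I-coated 96-well plates, single-lot HepaRG cells were exposed for 48 h, in duplicate, to eight-point half-log series of test chemicals beginning at 100 µM. The exposure medium was serum-free induction medium with 0.5% DMSO, and total lysis wells got 0.1% Triton X. Resorufin fluorescence from the CytoTox-ONE reaction, read on a Tecan Safire, reported LDH in 50 µL of spent medium. Percent cytotoxicity came from normalization to on-plate vehicle and total lysis controls, averaged over the duplicates.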

Compound	LDH release cytotoxicity (0.03162 µM)	LDH release cytotoxicity (0.1 µM)	LDH release cytotoxicity (0.3162278 µM)	LDH release cytotoxicity (1 µM)	LDH release cytotoxicity (3.16228 µM)	LDH release cytotoxicity (10 µM)	LDH release cytotoxicity (31.6228 µM)	LDH release cytotoxicity (100 µM)	further results
CNC(=S)S [Metam-sodium hydrate]	-0.462 ± 0.042%	-0.61 ± 0.22%	-0.991 ± 0.45%	-1.25 ± 0.15%	-0.486 ± 0.41%	-0.405 ± 0.015%	-0.218 ± 0.1%	1.15 ± 0.05%	
C=C(C)C(N)=O [Methacrylamide]	0.244 ± 0.55%	-1.11 ± 0.47%	-1.39 ± 0.69%	-1.09 ± 0.82%	-1.32 ± 1.9%	-0.285 ± 1.1%	-0.444 ± 0.94%	2.64 ± 0.98%	
CCC(=O)C(CC(C)N(C)C)(c1ccccc1)c1ccccc1 (stereo not given) [Methadone hydrochloride]									LDH release cytotoxicity (0.0229265 µM): -1.18 ± 0.096%; LDH release cytotoxicity (0.0725 µM): -0.8 ± 0.26%; LDH release cytotoxicity (0.2292651 µM): -1.01 ± 0.75%; LDH release cytotoxicity (0.725 µM): -1.59 ± 0.11%; LDH release cytotoxicity (2.29265 µM): -0.919 ± 0.09%; LDH release cytotoxicity (7.25 µM): -0.638 ± 0.73%; LDH release cytotoxicity (22.926513 µM): 0.191 ± 1.1%; LDH release cytotoxicity (72.5 µM): 7.87 ± 0.83%
COP(N)(=O)SC (stereo not given) [Methamidophos]	5.78 ± 0.77%	2.73 ± 1.8%	2.4 ± 2.4%	3.67 ± 3.3%	3.79 ± 2.6%	3.76 ± 1.4%	5.99 ± 0.16%	6.57 ± 0.57%	
C1N2CN3CN1CN(C2)C3 [Methenamine]									LDH release cytotoxicity (0.0322552 µM): -1.06 ± 0.69%; LDH release cytotoxicity (0.102 µM): -1.56 ± 0.28%; LDH release cytotoxicity (0.322552 µM): -1.99 ± 0.53%; LDH release cytotoxicity (1.02 µM): -2.63 ± 0.35%; LDH release cytotoxicity (3.2255232 µM): -1.7 ± 0.047%; LDH release cytotoxicity (10.2 µM): -1.59 ± 0.085%; LDH release cytotoxicity (32.2552 µM): -1.01 ± 0.47%; LDH release cytotoxicity (102 µM): 0.286 ± 0.11%
COc1nn(CSP(=S)(OC)OC)c(=O)s1 [Methidathion]	1.04 ± 0.16%	-1.02 ± 0.18%	-0.883 ± 0.25%	-0.575 ± 0.076%	0.0624 ± 0.29%	1.08 ± 1.4%	0.461 ± 1%	1.33 ± 0.11%	
CN1CC=NC1=S [Methimazole]	-0.734%	-1.69 ± 0.39%	-2.04 ± 0.31%	-2.56 ± 0.11%	-1.77 ± 0.33%	-1.81 ± 0.21%	-1.83 ± 0.38%	-0.15 ± 0.28%	
CNC(=O)ON=C(C)SC [Methomyl]	-0.681 ± 0.27%	-1.04 ± 0.28%	-0.724 ± 0.3%	-0.623 ± 0.49%	-1.04 ± 0.3%	-0.128 ± 0.062%	-1.13 ± 0.27%	-0.0692 ± 0.37%	
CN(Cc1cnc2nc(N)nc(N)c2n1)c1ccc(C(=O)NC(CCC(=O)O)C(=O)O)cc1 (stereo not given) [Methotrexate]	-2.75 ± 1.4%	-1.02 ± 1.2%	0.713 ± 1%	0.595 ± 0.46%	2.21 ± 1.1%	1.79 ± 0.51%	3.1 ± 0.33%	3.39 ± 1.3%	
COc1ccc(C(c2ccc(OC)cc2)C(Cl)(Cl)Cl)cc1 [Methoxychlor]									LDH release cytotoxicity (0.0314647 µM): -0.145 ± 0.82%; LDH release cytotoxicity (0.0995 µM): -0.434 ± 1.2%; LDH release cytotoxicity (0.3146466 µM): -0.0516 ± 0.38%; LDH release cytotoxicity (0.995 µM): 0.115 ± 0.092%; LDH release cytotoxicity (3.14647 µM): 0.0841 ± 0.19%; LDH release cytotoxicity (9.95 µM): -0.153 ± 0.2%; LDH release cytotoxicity (31.4647 µM): 0.12 ± 0.78%; LDH release cytotoxicity (99.5 µM): 17 ± 0.64%
COc1cccc(C(=O)NN(C(=O)c2cc(C)cc(C)c2)C(C)(C)C)c1C [Methoxyfenozide]	-1.25 ± 0.79%	-1.31 ± 0.37%	-0.377 ± 0.4%	-1.71 ± 0.41%	-1.43 ± 0.52%	-0.152 ± 0.72%	0.244 ± 0.32%	3.13 ± 0.26%	
COC(=O)c1ccccc1N [Methyl 2-aminobenzoate]	-1.17 ± 0.31%	0.00334 ± 0.73%	0.277 ± 0.2%	-0.0267 ± 0.46%	0.248 ± 0.12%	0.495 ± 0.94%	0.0802 ± 0.54%	1.28 ± 0.41%	
CCCCCCCCCCCC(=O)OC [Methyl dodecanoate]	0.879 ± 1.4%	-1.07 ± 0.59%	-1.35 ± 0.79%	-1.18 ± 0.72%	-0.971 ± 0.58%	-0.971 ± 1.3%	-1.41 ± 0.49%	0.025 ± 0.27%	
CN=C=S [Methyl isothiocyanate]		-1.72 ± 1%		-4.608 ± 0.021%	-3.71 ± 0.42%	-2.9 ± 0.8%	0.153 ± 0.77%	49.2 ± 6.8%	LDH release cytotoxicity (0.031623 µM): -2.69 ± 0.49%; LDH release cytotoxicity (0.316228 µM): -3.56 ± 1.4%
COS(C)(=O)=O [Methyl methanesulfonate]	-1.45 ± 0.74%	-1.11 ± 0.35%	-1.7 ± 0.1%	-0.993 ± 1.2%	-1.33 ± 0.4%	-1.07 ± 0.89%	-1.15 ± 0.067%	0.825 ± 0.66%	
CCCCCCCC(=O)OC [Methyl octanoate]	-0.862 ± 0.64%	-0.372 ± 0.27%	-1.13 ± 0.41%	-1.52 ± 0.096%	-0.786 ± 0.032%	-1.1 ± 0.2%	-1.29 ± 0.035%	0.214 ± 0.17%	
COP(=S)(OC)Oc1ccc([N+](=O)[O-])cc1 [Methyl parathion]	-0.787 ± 0.9%	-0.971 ± 1.1%	0.295 ± 1.4%	-1.21 ± 0.45%	-0.845 ± 0.36%	0.053 ± 0.23%	0.525 ± 0.42%	1.01 ± 0.04%	
COC(=O)c1ccccc1O [Methyl salicylate]	-1.8 ± 0.66%	-0.746 ± 1.1%	-0.192 ± 2.3%	-1.39 ± 0.17%	-1.33 ± 0.058%	-0.567 ± 0.066%	-1.23 ± 0.11%	0.0854 ± 0.3%	
C[C@](N)(Cc1ccc(O)c(O)c1)C(=O)O [Methyldopa sesquihydrate]	-0.769 ± 0.75%	-1.62 ± 1.9%	-0.864 ± 0.56%	-1.87 ± 0.72%	-1.57 ± 0.67%	-0.513 ± 0.67%	-2.01 ± 0.42%	-2.91 ± 0.43%	
N#CSCSC#N [Methylene bis(thiocyanate)]	0.59 ± 0.13%	0.474 ± 0.14%	-0.978 ± 0.4%	-0.877 ± 0.43%	-0.508 ± 0.021%	0.525 ± 0.24%	3.74 ± 0.86%	66.1 ± 1.7%	
